Experimental data: patent US20200222497A1, “USE OF COMPOSITAE-TYPE CYCLIC PEPTIDE COMPOUND AS CGAS-STING SIGNALLING PATHWAY INHIBITOR” (CHINA PHARMACEUTICAL UNIVERSITY, priority 2017, published 2020)

Test system: HSV-1 induced IFNβ protein in mouse serum
Experiment: IFNβ protein in serum of HSV-1 infected mice (ELISA)
Assay type: in vivo
Conditions: wild mouse, compound by tail vein injection three times, HSV-1 by tail vein, serum collected in 6 hours, FIG. 3
Description: Influence of the compositae type cyclopeptide compound Astin C (3) prepared in example 1 on expression of IFNβ protein in HSV-1 induced mouse serum.
The experimental principle: Expression of the IFNβ protein in the body is a mark event of innate immunity resisting infection reaction, the expressed IFNβ can activate the signal transduction channel of the interferon receptor (IFNR) to induce expression of cell factors and inflammatory factors such as interferon stimulated genes, and finally, the invading pathogenic microorganisms are eliminated by recruiting NK cells or further activating molecular mechanisms such as adaptive immune response. Therefore, after the DNA virus HSV-1 infects a mouse, the activating condition of the innate anti-infection immune response of the body can be reflected by detecting the expression quantity of IFN-β of mouse serum, so that influence of the compound on the innate anti-infection immune reaction of the body is evaluated.
The experimental method: (1) Establishment of an HSV-1 infected mouse model: A 6-8 week old wild mouse was taken; 100 μL of HSV-1, the titer of which is 1×10^7, was injected into a mouse body by way of tail vein injection; and serum was collected in 6 hours for a follow-up experiment. […]

CCC1NC(=O)C2C(Cl)C(Cl)CN2C(=O)C(CC)NC(=O)CC(c2ccccc2)NC(=O)C(CO)NC1=O (stereo not shown) [Astin C]
HSV-1 induced IFNβ content in the mouse serum: reduce the HSV-1 induced IFNβ content in the mouse serum obviously
